Reference: patent publication US20090176817A1, “Method of Treatment of Diarrhea-Predominant Irritable Bowel Syndrome in a Subject” (priority 2005, published 2009)

System: diarrhea-predominant IBS subjects
Assay: Study S241.3.006: weekly diary questions on adequate relief
Format: in vivo, human
Details: for Number of months a subject was a responder: One month (Abdominal pain/discomfort) / Number of months a subject was a responder: One month (Abnormal bowel habits) / Number of months a subject was a responder: One month (IBS symptoms) / Number of months a subject was a responder: Three months (Abdominal pain/discomfort) / Number of months a subject was a responder: Three months (Abnormal bowel habits) / Number of months a subject was a responder: Three months (IBS symptoms) / Number of months a subject was a responder: Two months (Abdominal pain/discomfort) / Number of months a subject was a responder: Two months (Abnormal bowel habits) / Number of months a subject was a responder: Two months (IBS symptoms) / Number of months a subject was a responder: Zero months (Abdominal pain/discomfort) / Number of months a subject was a responder: Zero months (Abnormal bowel habits) / Number of months a subject was a responder: Zero months (IBS symptoms): monthly LOCF
Description: The study was conducted in 129 study centers in the United States. At total of 2080 subjects consented to participate, and 711 subjects were randomized. A total of 692 subjects were analyzed for efficacy and 701 subjects were analyzed for safety. Diagnosis and main criteria for inclusion were IBS subjects satisfying the Rome I criteria (1992); the diarrhea predominant sub-population of the Rome II criteria; and a minimum abdominal pain/discomfort, stool frequency and consistency determined during the run-in period. Subjects were treated with cilansetron 2 mg tablets given orally TID or matching placebo tablets given orally TID for 12 weeks double-blind treatment.
The primary efficacy parameter was the number of months that a subject was a responder for IBS symptoms (abdominal pain, abdominal discomfort, abnormal bowel habits) over the 12-week treatment period. A responder for a month (monthly responder) was defined as a subject who answered the weekly question with “yes” at least twice for that month.
Studies S24 1.3.OO6, S24 1.3.0 1 1, and S24 1.3.009 used the following efficacy measurements: • The subjects answered the following three questions with “yes” or “no” using a phone diary at the end of each week: • a) During the last week, did you experience adequate relief of your IBS symptoms, such as abdominal pain, abdominal discomfort, abnormal bowel habits? • b) During the last week, did you experience adequate relief of your abdominal pain and/or discomfort? • c) During the last week, did you experience adequate relief of your abnormal bowel habits? • The subjects rated the following symptoms using the phone diary at the end of each day: • abdominal pain/discomfort (five-point scale); • stool consistency (seven-point Bristol Stool Scale); • stool frequency (number of bowel movements each day); • urgency (five-point scale); • straining (yes or no); • feeling of incomplete defecation (yes or no); • bloating or feeling of abdominal distension (five-point scale). • In Studies S241 A006 and S241.3.009, subjects completed the IBS-QOL Survey at Baseline (Day 1) and at the end of treatment. In Study S24 1.3.0 1 1, subjects completed the IBS-QOL Survey at Baseline (Day 1), at the end of the three-month treatment period, and at the end of rerandomized treatment.
In all three pivotal efficacy studies, the primary and main secondary efficacy parameters were based on the weekly diary questions on adequate relief and included the following: • 1. Number of months (one month equals four weeks) that a subject was a responder for the weekly diary questions on adequate relief. A responder for a month (monthly responder) was defined as a subject who answered the weekly question with “yes” at least twice for that month. For Studies S241.3.006 and S241.3.011, the primary efficacy parameter was the number of months that a subject was a responder for IBS symptoms during the 12-week treatment period. The two main secondary efficacy parameters were the number of months that a subject was a responder for abdominal pain/discomfort and abnormal bowel habits during the 12-week treatment period. For Study S241.3.009, the number of months that a subject was a responder for the weekly diary questions on adequate relief during Months 1 to 3 (the first 12 weeks) and Months 1 to 6 (24-week) was an additional key secondary efficacy parameter. • 2. Overall responder rate for the weekly diary questions on adequate relief. A responder was defined as a subject who answered the weekly question with “yes” for at least half of the answers available with a minimum of four weeks treatment duration. If a subject had less than four weeks treatment duration, the subject was considered a non-responder. The overall responder rate was the percentage of responders within a treatment group. For Study S241.3.009, the primary efficacy parameter was the overall responder rate for IBS symptoms during the 26-week treatment period. […]

[1] = Duration of IBS: >24 months to ≦48 months, 2 mg TID, observed case, ITT
[2] = Duration of IBS: >24 months to ≦48 months, three-month treatment period, ITT, 2 mg TID
[3] = Duration of IBS: >48 months to ≦120 months, 2 mg TID, observed case, ITT
[4] = Duration of IBS: >48 months to ≦120 months, three-month treatment period, ITT, 2 mg TID
[5] = Duration of IBS: >120 months, 2 mg TID, observed case, ITT
[6] = Duration of IBS: >120 months, three-month treatment period, ITT, 2 mg TID
[7] = Duration of IBS: ≦24 months, 2 mg TID, observed case, ITT

For `Cc1nccn1C[C@H]1CCc2c(c3cccc4c3n2CCC4)C1=O` [Cilansetron, (R)-(−)-4,5,6,8,9,10-hexahydro-10-[(2-methyl-1H-imidazol-1-yl)methyl]-11H-pyrido-[3,2,1-jk]-carbazol-11-one], the “Overall responder rate, adequate relief of abnormal bowel habits” value (Baseline severity of IBS: severe, three-month treatment period, observed case, ITT, 2 mg TID) was 90 (46) n (%), the “Overall responder rate, abdominal pain/discomfort” value (Caucasians) was 52% and the “Number of subjects who were responders during the three-month treatment period: Adequate relief of IBS symptoms” value (shortened to “Number … of IBS symptoms”) [1] was 20 (47) n (%). For the same compound, the “Number of subjects who were responders during the three-month treatment period: Adequate relief of abdominal pain/discomfort” value (“Number … of abdominal pain/discomfort” below) [1] was 22 (51) n (%), the “Number of subjects who were responders during the three-month treatment period: Adequate relief of abnormal bowel habits” value (shortened to “Number … of abnormal bowel habits”) [1] was 20 (47) n (%) and the “Number of months a subject was a responder: One month (Abdominal pain/discomfort)” value (“Number … One month (Abdominal pain/discomfort)” for short) [2] was 8 (19) n (%). For the same compound, the “Number of months a subject was a responder: One month (Abnormal bowel habits)” value (“Number … One month (Abnormal bowel habits)” for short) [2] was 10 (23) n (%), the “Number of months a subject was a responder: One month (IBS symptoms)” value (“Number … One month (IBS symptoms)” for short) [2] was 12 (28) n (%) and the “Number of months a subject was a responder: Three months (Abdominal pain/discomfort)” value [2] was 15 (35) n (%). The “Number of months a subject was a responder: Three months (Abnormal bowel habits)” value (“Number … Three months (Abnormal bowel habits)” below) [2] was 13 (30) n (%), the “Number of months a subject was a responder: Three months (IBS symptoms)” value (shortened to “Number … Three months (IBS symptoms)”) [2] was 14 (33) n (%) and the “Number of months a subject was a responder: Two months (Abdominal pain/discomfort)” value (“Number … Two months (Abdominal pain/discomfort)” below) [2] was 6 (14) n (%). For the same compound, the “Number of months a subject was a responder: Two months (Abnormal bowel habits)” value (“Number … Two months (Abnormal bowel habits)” for short) [2] was 7 (16) n (%), the “Number of months a subject was a responder: Two months (IBS symptoms)” value (from here on “Number … Two months (IBS symptoms)”) [2] was 4 (9) n (%) and the “Number of months a subject was a responder: Zero months (Abdominal pain/discomfort)” value (“Number … Zero months (Abdominal pain/discomfort)” for short) [2] was 14 (33) n (%). For the same compound, the “Number of months a subject was a responder: Zero months (Abnormal bowel habits)” value (shortened to “Number … Zero months (Abnormal bowel habits)”) [2] was 13 (30) n (%), the “Number of months a subject was a responder: Zero months (IBS symptoms)” value (“Number … Zero months (IBS symptoms)” below) [2] was 13 (30) n (%) and the “Number … of IBS symptoms” value [3] was 54 (52) n (%). The “Number … of abdominal pain/discomfort” value [3] was 58 (56) n (%), the “Number … of abnormal bowel habits” value [3] was 54 (52) n (%) and the “Number … One month (Abdominal pain/discomfort)” value [4] was 12 (12) n (%). The “Number … One month (Abnormal bowel habits)” value [4] was 12 (12) n (%), the “Number … One month (IBS symptoms)” value [4] was 15 (14) n (%) and the “Number of months a subject was a responder: Three months (Abdominal pain/discomfort)” value [4] was 40 (38) n (%). The “Number … Three months (Abnormal bowel habits)” value [4] was 37 (36) n (%), the “Number … Three months (IBS symptoms)” value [4] was 35 (34) n (%) and the “Number … Two months (Abdominal pain/discomfort)” value [4] was 18 (17) n (%). The “Number … Two months (Abnormal bowel habits)” value [4] was 19 (18) n (%), the “Number … Two months (IBS symptoms)” value [4] was 19 (18) n (%) and the “Number … Zero months (Abdominal pain/discomfort)” value [4] was 34 (33) n (%). The “Number … Zero months (Abnormal bowel habits)” value [4] was 36 (35) n (%), the “Number … Zero months (IBS symptoms)” value [4] was 35 (34) n (%) and the “Number … of IBS symptoms” value [5] was 69 (47) n (%). For the same compound, the “Number … of abdominal pain/discomfort” value [5] was 72 (49) n (%), the “Number … of abnormal bowel habits” value [5] was 73 (50) n (%) and the “Number … One month (Abdominal pain/discomfort)” value [6] was 15 (10) n (%). For the same compound, the “Number … One month (Abnormal bowel habits)” value [6] was 14 (10) n (%), the “Number … One month (IBS symptoms)” value [6] was 13 (9) n (%) and the “Number of months a subject was a responder: Three months (Abdominal pain/discomfort)” value [6] was 59 (40) n (%). For the same compound, the “Number … Three months (Abnormal bowel habits)” value [6] was 57 (39) n (%), the “Number … Three months (IBS symptoms)” value [6] was 51 (35) n (%) and the “Number … Two months (Abdominal pain/discomfort)” value [6] was 19 (13) n (%). The “Number … Two months (Abnormal bowel habits)” value [6] was 19 (13) n (%), the “Number … Two months (IBS symptoms)” value [6] was 22 (15) n (%) and the “Number … Zero months (Abdominal pain/discomfort)” value [6] was 53 (36) n (%). The “Number … Zero months (Abnormal bowel habits)” value [6] was 56 (38) n (%), the “Number … Zero months (IBS symptoms)” value [6] was 60 (41) n (%) and the “Number … of IBS symptoms” value [7] was 25 (49) n (%). The “Number … of abdominal pain/discomfort” value [7] was 27 (53) n (%).
